Measured values from PMC10531095, “Photonics of Some Monomethine Cyanine Dyes in Solutions and in Complexes with Biomolecules” (International Journal of Molecular Sciences, 2023).

Columns and labels:
HSA = molecular target: T1, HSA (Homo sapiens, UniProt P02768); assay: Quenching of HSA intrinsic fluorescence by MCD, synchronous fluorescence scanning; assay type: binding; settings: for decrease of the intensity of the SFS band of HSA, tyrosine: Δλ = 15 nm; for decrease of the intensity of the SFS band of HSA, tyrosine / decrease of the intensity of the SFS band of HSA, tryptophan: cMCD up to 5.3 × 10^−5 mol L^−1; for decrease of the intensity of the SFS band of HSA, tryptophan: Δλ = 60 nm
T1 construct: purchased Sigma-Aldrich
Protocol: In order to determine the binding sites of HSA when interacting with MCD and to evaluate possible changes in these sites, the fluorescence spectra of tyrosine and tryptophan groups of HSA in the presence of MCD were measured in the synchronous fluorescence scanning (SFS) mode. The positions of the SF spectra of protein amino acid residues depend on their microsolvation (micropolarity of the medium). Thus, SFS allows for obtaining data on the effect of complexation on the microenvironment of fluorophore groups of protein molecules.
Quenching of intrinsic HSA fluorescence was analyzed using the Stern–Volmer and Lehrer–Leavis relationships (see Equations (3) and (4)). The experimental dependences approximated by linear anamorphoses (R^2~0.9–0.98) were better in the coordinates of the Lehrer–Leavis model than in the Stern–Volmer model (the Stern–Volmer plots were nonlinear). The Lehrer–Leavis model assumes partial accessibility of HSA chromophores for quenching by MCD (the resulting quenching constants are shown in Table 6).
Absorption spectra were recorded on an SF-2000 spectrophotometer (Experimental-Construction Company “Spectrum”, St. Petersburg, Russia); fluorescence and fluorescence excitation spectra were recorded on a Fluorat-02-Panorama spectrofluorimeter (Group of Companies “Lumex”, St. Petersburg, Russia). The fluorescence and fluorescence excitation spectra were corrected for the spectral characteristics of the instrument (excitation channel signal) and sample transmission. Changes in the intrinsic fluorescence of HSA upon binding of MCD (in the presence of the dyes) were recorded in the synchronous fluorescence scanning (SFS) mode. In SFS mode, when registering spectra, a fixed difference Δλ= λfl − λex is maintained for the channels of excitation and registration. Synchronous scanning spectra were obtained at Δλ = 15 nm (fluorescence of tyrosine residues in the HSA molecule) and Δλ = 60 nm (fluorescence of tryptophan). The spectra were measured in 1 cm quartz semi-micro cells (Bio-Rad, Hercules, CA, USA).
The Stern–Volmer (Equation (3)) and Lehrer–Leavis (Equation (4)) dependences were used to analyze the results of measurements of HSA intrinsic fluorescence (synchronous scanning mode) in the presence of MCD [56, 57]. (3) I0/I=1 + KSV[Q] (4) I0/(I0−I)=1 /α+ 1/(αKSV[Q]) where I0 and I are the fluorescence intensities in the absence and in the presence of a quencher, respectively; [Q] is the quencher concentration; KSV is the Stern–Volmer quenching constant; and α is the proportion of fluorophores in the biomolecule available to the quencher in the Lehrer–Leavis model. […]
1. Spectral‐Fluorescent Titration
In experiments on spectral‐fluorescence titration, MCD 1–4 were dosed from their concentrated st ock solutions in EtOH. Microvolumes (~0.5–5 μL) were dosed into the measuring cell (dilution 1:500 – 1:1000).
In experiments with biomacromolecules, microvolumes of concentrated stock solutions of dsDNA, ssDNA and HSA were injected directly into the cells. Spectral‐fluorescent characteristics of MCD in complexes with biomacromolecules were studied by titration of dye solutions (cdye ~ 1 – 2 × 10–6 mol L–1) with increasing concentrations of biopolymers. Measurements of the intrinsic fluorescence of HSA in the presence of MCD were carried out at a constant concentration of HSA (cHSA ~ 2.0 × 10–5 mol L–1) by titration with increasing concentrations of dyes. After stirring, the absorption and fluorescence spectra of the dyes were recorded several times. Upon registration, the fluorescence and fl uorescence excitation spectra were corrected for the spectral characteristic of the excitation channel and for the absorption of […]
2. Fluorescence Quantum Yields
Determination of the fluorescence quantum yields of MCD 1–4 was performed using the standard […]

dsDNA = assay: Thermal dissociation (melting) of dsDNA in the presence of MCD; assay type: binding, chick; settings: cdsDNA~6 × 10^−5 mol L^−1, cMCD~6 × 10^−6 mol L^−1; for Tm(dsDNA), melting point of dsDNA in the presence of MCD: without cyanines 80 °C
Text: It is known that noncovalent ligand–dsDNA interactions upon the intercalative type of binding lead to additional stabilization of the biopolymer, which is reflected in an increase in the temperature range of thermal dissociation of the DNA double helix. From the data on the thermal dissociation of dsDNA, it is easy to obtain the melting point Tm(dsDNA) (at which 50% dsDNA is denatured). Note that Tm(dsDNA) depends on its GC composition, molecular length, and degree of strand complementarity; long duplexes with fewer base mismatches will have higher Tm(dsDNA) than short duplexes with more mismatches.
Melting of the DNA double helix was measured spectrophotometrically at t = […], the normalized temperature dependences of the absorbances of the samples at λabs = 260 nm are shown in Figure 8.
Single-stranded form of DNA (single-stranded DNA; ssDNA) was obtained according to the method described in [74]. The concentrations of DNA and the dyes were controlled spectrophotometrically. Molar extinction coefficient of dsDNA (ε, L⋅mol^−1⋅cm^−1) was taken to be 13,200 L mol^−1 cm^−1 (per base pair); for ssDNA, ε = 9045 L mol^−1 cm^−1 (per one base) was used. For MCD 1 and 2 in an aqueous buffer solution, we used extinction coefficients ε = 40,000 and 68,000 L mol^−1 cm^−1, respectively, which were taken from. For MCD 3 and 4, the molar extinction coefficients in ethanol solution were 69,200 and 49,000 L mol^−1 cm^−1 (taken from). […] Spectral fluorescent characteristics of MCD in complexes with biomacromolecules were studied by titration of dye solutions (see Supplementary Materials). The thermal dissociation (“melting”) of dsDNA in the presence of MCD was studied spectrophotometrically (λabs = 260 nm), the sample was heated (t° = 30–95 °C) using Peltier cells, and the temperature was controlled using a thermocouple. Melting points tm, corresponding to 50% hyperchromia of DNA samples were obtained.

T1 sequence (P02768 25-609): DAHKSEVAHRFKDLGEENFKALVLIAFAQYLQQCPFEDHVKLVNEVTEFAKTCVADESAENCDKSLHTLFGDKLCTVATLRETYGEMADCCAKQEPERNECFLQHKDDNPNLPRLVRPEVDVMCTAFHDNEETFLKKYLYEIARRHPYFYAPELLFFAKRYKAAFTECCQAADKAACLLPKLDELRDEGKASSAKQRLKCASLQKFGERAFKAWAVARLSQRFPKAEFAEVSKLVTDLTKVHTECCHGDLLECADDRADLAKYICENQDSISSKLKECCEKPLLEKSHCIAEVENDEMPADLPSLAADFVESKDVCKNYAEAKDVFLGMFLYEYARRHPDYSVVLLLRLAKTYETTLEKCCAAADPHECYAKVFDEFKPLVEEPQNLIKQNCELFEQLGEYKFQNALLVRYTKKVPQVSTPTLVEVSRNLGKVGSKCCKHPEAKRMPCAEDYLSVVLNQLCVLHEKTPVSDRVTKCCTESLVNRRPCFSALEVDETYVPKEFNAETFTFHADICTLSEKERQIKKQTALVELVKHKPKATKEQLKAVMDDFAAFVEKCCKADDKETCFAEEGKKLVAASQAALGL

| Compound | KSV, Stern–Volmer quenching constant (Lehrer–Leavis model) (HSA; Trp, SFS Δλ = 60 nm) | α, proportion of fluorophores available to the quencher (Lehrer–Leavis model) (HSA; Trp, SFS Δλ = 60 nm) | KSV, Stern–Volmer quenching constant (Lehrer–Leavis model) (HSA; Tyr, SFS Δλ = 15 nm) | α, proportion of fluorophores available to the quencher (Lehrer–Leavis model) (HSA; Tyr, SFS Δλ = 15 nm) | decrease of the intensity of the SFS band of HSA, tyrosine (HSA) | decrease of the intensity of the SFS band of HSA, tryptophan (HSA) | Tm(dsDNA), melting point of dsDNA in the presence of MCD (dsDNA) | growth of Tm(dsDNA) (dsDNA) |
| --- | --- | --- | --- | --- | --- | --- | --- | --- |
| CC[N+](CC)(CC)CCC[n+]1ccc(/C=C2\Sc3ccccc3N2C)c2ccc(O)cc21 [MCD 1] | 40400 L/mol | 0.40 | 21800 L/mol | 0.61 | 31% | 26% | 85–86 °C | – |
| CCN1/C(=C/c2sc3ccccc3[n+]2CC)Sc2ccccc21 [MCD 3] | 6.12e+07 L/mol | 0.82 | 112000 L/mol | 0.15 | 11% | 6% | 82 °C | 2–3 °C |
| CCN1/C(=C/c2ccc3ccccc3[n+]2CC)C=Cc2ccccc21 [MCD 4] | 21000 L/mol | 0.60 | 38200 L/mol | 0.33 | 21% | 22% | 83 °C | 2–3 °C |
